In patent US12077503B2, “Substituted cyclic amides and their use as herbicides” (FMC CORPORATION, priority 2015, dated 2024):
Where two headings read alike, the source gives them in different places.

Tests used:
Type in all cases: in vivo
[1] = tested on: giant foxtail (Setaria faberii); assay: Test A preemergence; details: Setaria faberi, pre-emergence, 240 h, 0 to 100 scale (0 no effect, 100 complete control), read-out: Plant response rating, Foxtail, Giant; for pest or weed control at 500 g/ha: 500 g ai/ha, preemergence; for pest or weed control at 125 g/ha: Preemergence, 125 g ai/ha
Procedure, shortened: (§1)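 Visual injury scores from 0, no effect, to 100, complete control, were assigned versus untreated controls roughly 10 d after treatment in the greenhouse. Test chemicals, formulated with surfactant in a non-phytotoxic solvent, were applied to planted seeds as a preemergence soil spray or postemergence to one- to two-leaf plants 2 to 10 cm tall, in loam–sand soil.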

[2] = tested on: ryegrass, Italian (Italian ryegrass, Lolium multiflorum); assay: Test A preemergence; details: Lolium multiflorum, pre-emergence, 240 h, 0 to 100 scale (0 no effect, 100 complete control), read-out: Plant response rating, Ryegrass, Italian; for pest or weed control at 500 g/ha: 500 g ai/ha, preemergence; for pest or weed control at 125 g/ha: Preemergence, 125 g ai/ha
Procedure, shortened: as §1

[3] = tested on: pigweed (Amaranthus retroflexus); assay: Test A preemergence; details: Amaranthus retroflexus, pre-emergence, 240 h, 0 to 100 scale (0 no effect, 100 complete control), read-out: Plant response rating, Pigweed; for pest or weed control at 500 g/ha: 500 g ai/ha, preemergence; for pest or weed control at 125 g/ha: Preemergence, 125 g ai/ha
[4] = tested on: barnyardgrass (Echinochloa crus-galli); assay: Test A preemergence; details: Echinochloa crus-galli, pre-emergence, 240 h, 0 to 100 scale (0 no effect, 100 complete control), read-out: Plant response rating, Barnyardgrass; for pest or weed control at 500 g/ha: 500 g ai/ha, preemergence; for pest or weed control at 125 g/ha: Preemergence, 125 g ai/ha
Procedure, shortened: as §1

[5] = tested on: ragweed (common ragweed, Ambrosia elatior); assay: Test A preemergence; details: Ambrosia artemisiifolia, pre-emergence, 240 h, 0 to 100 scale (0 no effect, 100 complete control), read-out: Plant response rating, Ragweed; for pest or weed control at 500 g/ha: 500 g ai/ha, preemergence; for pest or weed control at 125 g/ha: Preemergence, 125 g ai/ha
Procedure, shortened: as §1

Kochia (Kochia scoparia) [6] = assay: Test A preemergence; details: Bassia scoparia, pre-emergence, 240 h, 0 to 100 scale (0 no effect, 100 complete control), read-out: Plant response rating, Kochia; for pest or weed control at 500 g/ha: 500 g ai/ha, preemergence; for pest or weed control at 125 g/ha: Preemergence, 125 g ai/ha
Procedure, shortened: as §1

[7] = tested on: giant foxtail (Setaria faberii); assay: Test A postemergence; details: Setaria faberi, post-emergence, 240 h, Postemergence; for pest or weed control at 125 g/ha: 125 g ai/ha; for pest or weed control at 500 g/ha: 500 g ai/ha, visual injury, 0 to 100 scale (0 no effect, 100 complete control), approx. 10 d
Procedure, shortened: as §1

[8] = tested on: ryegrass, Italian (Italian ryegrass, Lolium multiflorum); assay: Test A postemergence; details: Lolium multiflorum, post-emergence, 240 h, Postemergence; for pest or weed control at 125 g/ha: 125 g ai/ha; for pest or weed control at 500 g/ha: 500 g ai/ha, visual injury, 0 to 100 scale (0 no effect, 100 complete control), approx. 10 d
Procedure, shortened: as §1

Kochia (Kochia scoparia) [9] = assay: Test A postemergence; details: Bassia scoparia, post-emergence, 240 h, Postemergence; for pest or weed control at 125 g/ha: 125 g ai/ha; for pest or weed control at 500 g/ha: 500 g ai/ha, visual injury, 0 to 100 scale (0 no effect, 100 complete control), approx. 10 d
Procedure, shortened: as §1

[10] = tested on: blackgrass (Alopecurus myosuroides); assay: Test A postemergence; details: Alopecurus myosuroides, post-emergence, 240 h, Postemergence; for pest or weed control at 125 g/ha: 125 g ai/ha; for pest or weed control at 500 g/ha: 500 g ai/ha, visual injury, 0 to 100 scale (0 no effect, 100 complete control), approx. 10 d
Procedure, shortened: as §1

rice (Oryra sativa) = assay: Test B flooded paddy test; details: Oryza sativa, 360 h, Flood, 250 g ai/ha; visually evaluated after 13 to 15 d; read-out: Plant response rating, Rice (0 to 100 scale where 0 is no effect and 100 is complete control)
Procedure, shortened: (§2)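 Response scored visually against untreated controls, 0 = no effect and 100 = complete control, 13–15 d after treatment in the greenhouse. Compounds added to paddy water held 3 cm above soil surface. Treatment given at 2-leaf stage.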

[11] = tested on: barnyardgrass (Echinochloa crus-galli); assay: Test B flooded paddy test; details: Echinochloa crus-galli, 360 h, Flood, 250 g ai/ha; visually evaluated after 13 to 15 d; read-out: Plant response rating, Barnyardgrass (0 to 100 scale where 0 is no effect and 100 is complete control)
Procedure, shortened: as §2

[12] = tested on: ducksalad (Heteranthera limosa); assay: Test B flooded paddy test; details: Heteranthera limosa, 360 h, Flood, 250 g ai/ha; visually evaluated after 13 to 15 d; read-out: Plant response rating, Ducksalad (0 to 100 scale where 0 is no effect and 100 is complete control)
Procedure, shortened: as §2

[13] = tested on: sedge, umbrella (small-flower umbrella sedge, Cyperus difformis); assay: Test B flooded paddy test; details: Cyperus difformis, 360 h, Flood, 250 g ai/ha; visually evaluated after 13 to 15 d; read-out: Plant response rating, Sedge, Umbrella (0 to 100 scale where 0 is no effect and 100 is complete control)
Procedure, shortened: as §2

[14] = read-out: Plant response rating, Foxtail, Giant
[15] = read-out: Plant response rating, Ryegrass, Italian
[16] = read-out: Plant response rating, Kochia
[17] = read-out: Plant response rating, Blackgrass
[18] = visual injury after approx. 10 d, 0 to 100 scale, 0 no effect, 100 complete control, read-out: Plant response rating, Foxtail, Giant
[19] = visual injury after approx. 10 d, 0 to 100 scale, 0 no effect, 100 complete control, read-out: Plant response rating, Ryegrass, Italian
[20] = visual injury after approx. 10 d, 0 to 100 scale, 0 no effect, 100 complete control, read-out: Plant response rating, Kochia
[21] = visual injury after approx. 10 d, 0 to 100 scale, 0 no effect, 100 complete control, read-out: Plant response rating, Blackgrass

SMILES | pest or weed control at 500 g/ha [1] | pest or weed control at 125 g/ha [1] | pest or weed control at 500 g/ha [2] | pest or weed control at 125 g/ha [2] | pest or weed control at 500 g/ha [3] | pest or weed control at 125 g/ha [3] | pest or weed control at 500 g/ha [4] | pest or weed control at 125 g/ha [4] | pest or weed control at 500 g/ha [5] | pest or weed control at 125 g/ha [5] | pest or weed control at 500 g/ha (Kochia (Kochia scoparia) [6]) | pest or weed control at 125 g/ha (Kochia (Kochia scoparia) [6]) | pest or weed control at 500 g/ha [7, 14] | pest or weed control at 500 g/ha [8, 15] | pest or weed control at 500 g/ha (Kochia (Kochia scoparia) [9]; [16]) | pest or weed control at 500 g/ha [10, 17] | pest or weed control at 250 g/ha (rice (Oryra sativa)) | pest or weed control at 250 g/ha [11] | pest or weed control at 250 g/ha [12] | pest or weed control at 250 g/ha [13] | also measured
CN1C[C@H](c2ccc(C(F)F)cc2)[C@@H](C(=O)Nc2cccc(F)c2F)C1=O [Compound 1383] | 100% | 100% | 70% | 70% | 80% | 80% | 100% | 100% | 80% | 80% | 90% | 90% | 90% | 50% | 70% | 50% | 25% | 65% | 100% | 0% | pest or weed control at 125 g/ha ([7]; visual rating about 10 d after treatment, read-out: Foxtail, Giant plant response rating (0 to 100 scale)): 90%; pest or weed control at 125 g/ha ([8]; visual rating about 10 d after treatment, read-out: Ryegrass, Italian plant response rating (0 to 100 scale)): 40%; pest or weed control at 125 g/ha (Kochia (Kochia scoparia) [9]; visual rating about 10 d after treatment, read-out: Kochia plant response rating (0 to 100 scale)): 70%; pest or weed control at 125 g/ha ([10]; visual rating about 10 d after treatment, read-out: Blackgrass plant response rating (0 to 100 scale)): 40%
O=C1NC[C@H](c2cccc(C(F)(F)F)n2)[C@H]1C(=O)Nc1cccc(F)c1F [Compound 1385] | 90% | 90% | 0% | 0% | 0% | 0% | 90% | 90% | 0% | 0% | 20% | 0% | 90% | 20% | 0% | 20% | 0% | 0% | 40% | 0% | pest or weed control at 125 g/ha [7, 18]: 70%; pest or weed control at 125 g/ha [8, 19]: 0%; pest or weed control at 125 g/ha (Kochia (Kochia scoparia) [9]; [20]): 0%; pest or weed control at 125 g/ha [10, 21]: 20%
CSc1ccccc1NC(=O)[C@H]1C(=O)N(C)C[C@@H]1c1ccc(C(F)(F)F)cc1 [Compound 1391] | 100% | 100% | 70% | 30% | 90% | 90% | 100% | 90% | 90% | 90% | 90% | 90% | 90% | 60% | 80% | 70% | 0% | 0% | 75% | 0% | pest or weed control at 125 g/ha [7, 18]: 90%; pest or weed control at 125 g/ha [8, 19]: 40%; pest or weed control at 125 g/ha (Kochia (Kochia scoparia) [9]; [20]): 70%; pest or weed control at 125 g/ha [10, 21]: 40%
O=C1NC[C@H](c2cncc(C(F)(F)F)c2)[C@H]1C(=O)Nc1cccc(F)c1F [Compound 1394] | 90% | 90% | 60% | 50% | 30% | 0% | 90% | 90% | 80% | 20% | 60% | 40% | 90% | 20% | 0% | 60% | 10% | 40% | 75% | 0% | pest or weed control at 125 g/ha [7, 18]: 80%; pest or weed control at 125 g/ha [8, 19]: 0%; pest or weed control at 125 g/ha (Kochia (Kochia scoparia) [9]; [20]): 0%; pest or weed control at 125 g/ha [10, 21]: 0%
